{"source": "paper PMC9276943", "about": "(Molecular Plant Pathology, 2022)", "target": "T1, truncated CsrD, EAL domain only (E. amylovora Ea1189) (Erwinia amylovora, UniProt A0ABX7MI01)", "T1 sequence (A0ABX7MI01 403-633)": "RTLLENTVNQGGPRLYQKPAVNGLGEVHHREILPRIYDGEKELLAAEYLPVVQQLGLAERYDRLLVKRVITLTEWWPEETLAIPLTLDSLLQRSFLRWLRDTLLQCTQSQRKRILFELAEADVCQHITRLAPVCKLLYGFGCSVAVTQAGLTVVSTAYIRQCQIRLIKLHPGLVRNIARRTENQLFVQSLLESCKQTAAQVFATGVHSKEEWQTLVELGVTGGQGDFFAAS", "test": "streptavidin pull-down with anti-His immunoblot", "assay_type": "binding", "conditions": "labelled compound (biotinylated c-di-GMP, 100 µM); 1.7 µM protein"}
{"smiles": "Nc1nc2c(ncn2[C@@H]2O[C@@H]3COP(=O)(O)O[C@H]4[C@@H](O)[C@H](n5cnc6c(=O)[nH]c(N)nc65)O[C@@H]4COP(=O)(O)O[C@H]3[C@H]2O)c(=O)[nH]1", "note": "[c-di-GMP]", "values": [{"measurement": "streptavidin pull-down with anti-His immunoblot", "result": "truncated version of CsrD that consisted of only the WT EAL domain exhibited binding"}]}
